According to US6699686B1, “Modified nuclear glucocorticoid receptor, fusion protein, and DNA fragments coding for said receptor and said fusion protein” (Association pour le Development de la Recherche en …, priority 1996, dated 2004):

Molecular target: T1, hGR(I747/T) (Homo sapiens, UniProt P04150, I747T)
T1 construct: The same shift was observed as with the complete GR (I747/T) mutant; expressed in transfected cells
T1 sequence (P04150 1-777 I747T): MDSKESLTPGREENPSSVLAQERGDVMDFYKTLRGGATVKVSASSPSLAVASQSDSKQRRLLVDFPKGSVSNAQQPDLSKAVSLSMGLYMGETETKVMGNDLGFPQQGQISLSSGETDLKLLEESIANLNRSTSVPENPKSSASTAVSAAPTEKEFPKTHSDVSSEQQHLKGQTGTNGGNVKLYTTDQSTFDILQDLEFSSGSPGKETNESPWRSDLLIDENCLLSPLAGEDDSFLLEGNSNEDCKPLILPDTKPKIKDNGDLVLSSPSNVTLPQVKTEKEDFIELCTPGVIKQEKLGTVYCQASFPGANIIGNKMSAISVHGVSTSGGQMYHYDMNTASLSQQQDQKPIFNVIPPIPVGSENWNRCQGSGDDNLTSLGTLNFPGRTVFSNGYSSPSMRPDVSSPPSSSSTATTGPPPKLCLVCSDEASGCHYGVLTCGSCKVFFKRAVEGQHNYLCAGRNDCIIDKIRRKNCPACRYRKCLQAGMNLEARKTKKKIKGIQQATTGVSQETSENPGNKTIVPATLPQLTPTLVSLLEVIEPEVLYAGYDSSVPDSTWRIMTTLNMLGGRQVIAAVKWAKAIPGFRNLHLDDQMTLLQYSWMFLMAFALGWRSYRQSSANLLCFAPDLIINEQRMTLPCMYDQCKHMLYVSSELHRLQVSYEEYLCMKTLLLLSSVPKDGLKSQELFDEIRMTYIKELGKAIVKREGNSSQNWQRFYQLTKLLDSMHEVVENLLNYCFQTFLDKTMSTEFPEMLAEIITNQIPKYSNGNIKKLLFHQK
Test: Transcriptional activation of pTAT-tk-Luc luciferase reporter in transiently transfected CV-1 cells
Format: cell-based
Details: CV-1 cells, pTAT-tk-Luc; for Luciferase activity % hGR (I747/T): 24 h ligand, mean of three independent assays; for EC50 hGR (I747/T): ligand concentration giving 50% of maximum transcriptional response
Description: The receptors were transiently expressed in GR-free CV-1 cells, conjointly with a luciferase reporter gene under the control of the tyrosine aminotransferase promoter (pTAT-tk-Luc).
After transfection, the cells were incubated for 24 hours with increasing concentrations of Dex, and they were then subjected to an assay of the β-galactosidase and luciferase activities, as described in “Materials and Methods”. The luciferase activity was normalized with the β-galactosidase activity, and the value obtained in the absence of ligand was subtracted for each point. The results were expressed as a percentage of the maximum luciferase activity obtained for each receptor. Each point is the mean±standard deviation of the mean of four separate determinations carried out in duplicate. […] The [^3H] steroid attached was measured after treatment with dextran-coated charcoal. The results presented are those for a single assay carried out in duplicate and representative of three separate assays.
Co-transfections were carried out and dose-response curves were constructed as described in FIG. 2. […] The assays of luciferase and β-galactosidase activity were carried out as described in “Materials and Methods”. The mean values of three independent assays are given in this table. nm=not measurable.
The CV-1 and Cos-7 cells were cultured in Dulbeco's modified Eagle's medium (DMEM) containing 10% (v/v) of fetal calf serum (FCS) (Gibco, Grand Island, N.Y.), in a humidified atmosphere containing 5% CO2. The HeLa cells were cultured under the same conditions. Transient transfections were carried out in 6-well multiplates according to the calcium phosphate procedure already described (42). A reference recombinant plasmid, pCMV-βgal, expressing bacterial β-galactosidase, was transfected conjointly with the receptor expression vector and the corresponding reporter gene so as to correct possible variations in he transfection efficiency. The precipitate was removed by washing after 24 hours, and the cells were kept in DMEX without FCS but containing hormone. After another 24 hours, the cells were rinsed and lysed for 15 minutes with 0.3 ml of lysis buffer [25 mM Tris.phosphate, pH 7.8, 8 mM […], 1% Triton X100, 10% glycerol (48)]. The corresponding luciferase activity as determined on an aliquot fraction (0.1 ml), by evaluation of the luminescence peak (for an integration time of 15 seconds), after injection of 0.1 ml of 1 mM luciferin in an LKB luminometer. The β-galactosidase was determined by the method modified by Bocquel et al. (49), for controlling the efficiency of each transfection.
The reporter gene pTAT-tk-Luc was provided by D. Gagne and was constructed as follows: an intermediate plasmid pTAT was first generated by insertion of the 966 bp EcoRI-BamHI segment obtained from pKT531 [offered freely by T. Grande (50)] into the corresponding sites of the vector pUC19 (Pharmacia). The fragment containing the sequence coding for the firefly luciferase and the thymidine kinase (tk) minimal promoter obtained from the Herpes simplex virus was isolated in the form of a BamHI fragment from pvit-tk-Luc (51) and inserted, downstream of the TAT promoter, into the corresponding site of pTAT. The reporter plasmid pGRE-tk-Luc was constructed by ligation of the fragment of HindIII-BglII digestion of pGRE-tk-CAT (52), which contains a synthetic GRE (AGAACAcagTGTTCT) upstream of the tk minimal promoter, into the HindIII-BglII sites of pLuc (53). The reporter gene p(17M)5-βGlob-Luc has been previously described (54). The reporter plasmid p(17M)5-tata-Luc was constructed from the plasmid p(17M)5-tata-CAT (55) by digestion with XhoI-BamHI and isolation of the fragment containing (17M5)-tata. This fragment was then inserted into the vector pGL2 (Promega) digested with the same restriction enzymes.

| SMILES | transactivation by the I747/T mutant receptor compared with wild-type receptor | Luciferase activity % hGR (I747/T) [%] | EC50 hGR (I747/T) |
| --- | --- | --- | --- |
| C[C@]12CCC(=O)C=C1CC[C@@H]1[C@@H]2[C@@H](O)C[C@]2(C=O)[C@@H](C(=O)CO)CC[C@@H]12 [Aldosterone, aldosterone] | suppressed | 0 | nM |
| C[C@]12C[C@H](O)[C@H]3[C@@H](CCC4=CC(=O)CC[C@@]43C)[C@@H]1CC[C@@H]2C(=O)CO [Corticosterone, corticosterone] | suppressed | 0 | nM |
| C[C@]12CCC(=O)C=C1CC[C@@H]1[C@@H]2[C@@H](O)C[C@@]2(C)[C@H]1CC[C@]2(O)C(=O)CO [Cortisol, cortisol] | greatly reduced | 15 | – |
| C[C@@H]1C[C@H]2[C@@H]3CCC4=CC(=O)C=C[C@]4(C)[C@@]3(F)[C@@H](O)C[C@]2(C)[C@@]1(O)C(=O)CO [Dexamethasone, dexamethasone] | – | 100 | – |
